Data set [1] in a line: Lipophilicity, logD of compound in 1-Octanol/PBS at pH 7.4 by LC-MS/MS method. In kind it is physicochemical.
The test system of data set [2] is Phosphatidylinositol 4,5-bisphosphate 3-kinase catalytic subunit alpha isoform (Homo sapiens), P42336 [H1047R]. The data set is described as follows: Induction of P110alpha H1047R mutant degradation in human HCC1954 cells at 0.012 to 1 uM after 24 hrs. The format is cell-based. Conditions: dose 0.012-1 µM.
Data set [3] can be described thus: Thermodynamic aqueous solubility of the compound at pH 2. In kind it is physicochemical. Conditions: read-out: Therm_solubility.
The next data set relates to MCF7. The data set is described as follows: Antiproliferative activity against human MCF7 cells assessed as reduction in cell viability incubated for 4 days by Celltiter-Glo luminescence assay. The format is functional, cell-based. Conditions: MCF7, 96 h. (In general: In ATP-based viability assays light output follows the ATP content of the culture.)
A short description of data set [4]: Plasma protein binding in human assessed as unbound fraction at 5 uM incubated for 4 hrs by equllibrium dialysis method. In kind it is ADME, cell-free.
Data set [5] can be described thus: Plasma protein binding in rat assessed as unbound fraction at 5 uM incubated for 4 hrs by equllibrium dialysis method. In kind it is ADME, cell-free.
The nature of data set [6]: AUC in NCR nude mouse at 5 mg/kg, po measured upto 8 hrs by LC-MS/MS analysis. In kind it is ADME, organism-based. More on the design: time < 8 hrs, dose 5 mg/kg, route po. Conditions: in vivo.
Data set [7] can be described thus: Oral bioavailability in NCR nude mouse at 50 mg/kg measured upto 8 hrs by LC-MS/MS analysis. In kind it is ADME, organism-based. The settings on record: in vivo.
A further data set addresses Cytochrome P450 2C9 (Homo sapiens, UniProt P11712). The data set is described as follows: Inhibition of CYP2C9 (unknown origin). The format is ADME.
Another data set addresses T1, Cytochrome P450 2C8 (Homo sapiens, UniProt P10632).
T1 sequence (P10632 whole entry): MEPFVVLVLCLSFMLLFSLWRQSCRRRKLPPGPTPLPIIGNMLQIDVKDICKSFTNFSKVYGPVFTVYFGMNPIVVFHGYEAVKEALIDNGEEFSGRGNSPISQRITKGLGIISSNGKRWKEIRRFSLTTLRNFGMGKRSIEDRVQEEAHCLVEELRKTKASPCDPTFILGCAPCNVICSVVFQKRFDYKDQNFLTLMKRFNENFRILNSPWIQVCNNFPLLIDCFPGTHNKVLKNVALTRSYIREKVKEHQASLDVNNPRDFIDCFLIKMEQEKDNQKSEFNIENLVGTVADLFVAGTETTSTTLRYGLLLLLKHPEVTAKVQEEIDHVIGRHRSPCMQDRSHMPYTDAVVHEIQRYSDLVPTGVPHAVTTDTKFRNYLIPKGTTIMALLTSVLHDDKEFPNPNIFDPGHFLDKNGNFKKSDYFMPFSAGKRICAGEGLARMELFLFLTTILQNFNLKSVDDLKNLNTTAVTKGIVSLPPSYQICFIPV
The data set is described as follows: Inhibition of CYP2C8 (unknown origin). In kind it is ADME.

For the next data set, the target named is Cytochrome P450 2C19 (Homo sapiens, UniProt P33261). The data set is described as follows: Inhibition of CYP2C19 (unknown origin). In kind it is ADME.
Sequence of Cytochrome P450 2C19 (P33261 whole entry): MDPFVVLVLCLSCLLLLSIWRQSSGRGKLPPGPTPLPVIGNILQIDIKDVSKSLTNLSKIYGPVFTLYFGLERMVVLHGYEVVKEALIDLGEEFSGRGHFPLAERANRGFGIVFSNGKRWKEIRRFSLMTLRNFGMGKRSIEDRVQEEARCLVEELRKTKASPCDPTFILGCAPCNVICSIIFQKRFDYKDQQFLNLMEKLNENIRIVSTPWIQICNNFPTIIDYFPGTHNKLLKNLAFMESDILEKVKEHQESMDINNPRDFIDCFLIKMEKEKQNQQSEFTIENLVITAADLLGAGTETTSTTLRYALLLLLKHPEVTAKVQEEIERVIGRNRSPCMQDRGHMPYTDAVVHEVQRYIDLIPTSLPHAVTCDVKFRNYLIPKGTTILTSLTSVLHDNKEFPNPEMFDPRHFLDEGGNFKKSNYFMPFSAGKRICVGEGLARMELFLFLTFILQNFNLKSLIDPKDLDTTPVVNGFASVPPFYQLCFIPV
The subject of another data set is HCC1954. The data set is described as follows: Antitumor activity against human HCC1954 cells xenografted in mouse assessed as increase in cleaved PARP level at 50 mg/kg, po. In kind it is functional, organism-based.

≈ marks a conversion by molar mass, not a printed value. Calls of active or inactive are those of the source. The rule behind the calls is not given here. Bounds are passed on as bounds.

Sequence of Cytochrome P450 2C9 (P11712 whole entry): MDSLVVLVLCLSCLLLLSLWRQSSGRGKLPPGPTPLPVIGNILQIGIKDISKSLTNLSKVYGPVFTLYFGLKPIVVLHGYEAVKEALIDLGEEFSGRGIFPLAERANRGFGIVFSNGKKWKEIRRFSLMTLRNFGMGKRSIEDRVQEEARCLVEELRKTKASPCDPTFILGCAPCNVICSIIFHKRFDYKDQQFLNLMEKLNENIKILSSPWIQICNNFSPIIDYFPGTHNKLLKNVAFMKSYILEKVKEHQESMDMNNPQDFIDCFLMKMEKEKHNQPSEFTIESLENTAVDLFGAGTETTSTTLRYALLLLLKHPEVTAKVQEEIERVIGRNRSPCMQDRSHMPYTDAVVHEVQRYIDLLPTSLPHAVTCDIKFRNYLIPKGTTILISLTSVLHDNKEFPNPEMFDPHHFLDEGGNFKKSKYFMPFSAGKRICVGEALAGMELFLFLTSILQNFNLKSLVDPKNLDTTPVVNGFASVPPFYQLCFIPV
Sequence of Phosphatidylinositol 4,5-bisphosphate 3-kinase catalytic subunit alpha isoform (Homo sapiens), P42336 [H1047R] (P42336 whole entry H1047R, canonical isoform): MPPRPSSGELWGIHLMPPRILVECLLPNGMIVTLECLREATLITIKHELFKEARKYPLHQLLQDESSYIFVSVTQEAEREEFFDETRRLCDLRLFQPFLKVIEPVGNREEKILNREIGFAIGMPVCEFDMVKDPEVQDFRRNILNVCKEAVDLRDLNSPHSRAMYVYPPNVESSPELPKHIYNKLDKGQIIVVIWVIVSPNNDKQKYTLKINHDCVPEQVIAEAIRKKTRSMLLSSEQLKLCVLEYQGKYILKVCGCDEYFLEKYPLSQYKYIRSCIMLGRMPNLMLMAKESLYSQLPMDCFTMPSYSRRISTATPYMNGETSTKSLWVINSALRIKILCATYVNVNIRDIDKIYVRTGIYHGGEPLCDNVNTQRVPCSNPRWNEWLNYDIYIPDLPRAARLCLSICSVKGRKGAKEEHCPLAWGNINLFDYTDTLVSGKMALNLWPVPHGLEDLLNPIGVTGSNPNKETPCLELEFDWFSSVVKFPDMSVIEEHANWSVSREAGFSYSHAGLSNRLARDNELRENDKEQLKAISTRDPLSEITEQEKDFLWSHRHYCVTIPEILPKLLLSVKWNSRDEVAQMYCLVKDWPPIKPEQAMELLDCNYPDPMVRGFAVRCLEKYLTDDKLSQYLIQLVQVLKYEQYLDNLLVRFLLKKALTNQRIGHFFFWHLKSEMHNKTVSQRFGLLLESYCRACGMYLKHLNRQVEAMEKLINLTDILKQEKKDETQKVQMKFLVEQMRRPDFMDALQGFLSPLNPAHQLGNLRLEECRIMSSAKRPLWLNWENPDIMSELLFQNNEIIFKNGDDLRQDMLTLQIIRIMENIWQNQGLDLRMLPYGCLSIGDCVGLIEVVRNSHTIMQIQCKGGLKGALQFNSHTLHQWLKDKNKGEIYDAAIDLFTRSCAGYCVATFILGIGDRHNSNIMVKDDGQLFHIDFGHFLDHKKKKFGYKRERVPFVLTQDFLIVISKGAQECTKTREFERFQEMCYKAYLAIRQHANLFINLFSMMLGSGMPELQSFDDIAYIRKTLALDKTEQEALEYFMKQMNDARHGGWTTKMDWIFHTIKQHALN

What is called logD is lipophilicity at a set pH, counting ionised and neutral species. Low readings indicate a more hydrophilic compound, high ones a more lipophilic compound. What is called EC50 is the concentration at which the effect is half-maximal. As usually defined, the fraction unbound is free concentration divided by total concentration. As a reminder, the AUC is concentration integrated over time. Low values mean less exposure, high ones more exposure. By bioavailability is commonly meant dose-corrected exposure relative to a reference, in per cent. Low values mean poor availability, high ones good availability. By IC50 is commonly meant the midpoint of a concentration-inhibition curve. In data set [1], `C[C@H](Nc1ccc2c(c1)OCCn1cc(N3C(=O)OC[C@H]3C(F)F)nc1-2)C(N)=O` [INAVOLISIB] displayed a logD of 0.8. For the same compound, the outcome (in [2]; in the data set on HCC1954) was Active. For the same compound, the solubility thermodynamic in data set [3] worked out at 0.615 mg/mL (≈ 1510 µM). In addition, the EC50 in the data set with MCF7 was 0.03 µM. The fraction unbound at 4 h, 5 µM in data set [4] is 0.589; in [5] it was 0.608. Besides, the AUC at 8 h in [6] amounted to 2500 nM·h. Moreover, the bioavailability in [7] came to 59%. For the same compound, the concentration for half-maximal inhibition (IC50) against Cytochrome P450 2C9, against Cytochrome P450 2C8 and on Cytochrome P450 2C19 was over 10 µM each time.

Values taken from ChEMBL document CHEMBL5150064 (J Med Chem, 2022).
